From patent publication US20250255832A1, “SKIN ADHESIVE PATCH FOR NEGATIVE PRESSURE STIMULATION AND MANUFACTURING METHOD THEREFOR” (Research & Business Foundation Sungkyunkwan University, priority 2022, published 2025) come the findings set out here.

Series [1] in a line: delivery depth by the d-SCC for various drugs with different molecular weights on pig skin. Format: in vitro ADME. The note with it: applied in combination with d-SCC. The source says: FIG. 11 includes: (a) a graph showing the improvement in delivery depth by the d-SCC for various drugs with different molecular weights on pig skin; and (b) images showing the delivered states of the respective drugs under each condition.

The conditions of series [2]: artificial skin, vs without a patch.
For series [3], the system named is atopic dermatitis-induced mice. Kind of series: transepidermal water loss in atopic dermatitis-induced mice, drugs combined with d-SCC. Conditions: applied in combination with the d-SCC patch. The class given is in vivo. From the text: FIG. 13 includes: (a) images showing the skin recovery progression in atopic dermatitis-induced mice following the combined application of various drugs and the d-SCC; and (b) a graph illustrating transepidermal water loss over time resulting from the combined application of the respective drugs and the d-SCC.

Entries after “also recorded” stand apart in the source; their conditions may differ. Where two headings read alike, the source gives them in different places.

In the case of Hyaluronic acid, the “delivery depth of drug applied together with d-SCC” value (“delivery depth … with d-SCC” below) in series [1] is “excellent delivery depth”.
For the molecule `CCN(CC)c1ccc2c(-c3ccccc3C(=O)O)c3ccc(=[N+](CC)CC)cc-3oc2c1.[Cl-]` [rhodamine B], the “delivery depth improved compared to w/o patch” value in series [2] (30 minutes after removal of the patch) is listed as “up to 95%”; in series [2] (after 30 minutes of patch application), “up to 138%”.
For `Cc1occc(=O)c1O` [Maltol], in series [1], the “delivery depth … with d-SCC” value was “greatest delivery depth among the tested conditions; also recorded: excellent delivery depth”. Also, the “transepidermal water loss (TEWL) of the skin” value in series [3] is on record as “recovered to a level closest to that of normal (control) skin”.
Consider `CC1=C(/C=C/C(C)=C/C=C/C(C)=C/CO)C(C)(C)CCC1` [Retinol], for which the “delivery depth … with d-SCC” value in series [1] is recorded as “excellent delivery depth”.
The same measure, in the same setting: the entry for Ramoplanin is “excellent delivery depth”.

B1: Ovalbumin (protein, UniProt P01012 2-386, looked up)
Ovalbumin: GSIGAASMEFCFDVFKELKVHHANENIFYCPIAIMSALAMVYLGAKDSTRTQINKVVRFDKLPGFGDSIEAQCGTSVNVHSSLRDILNQITKPNDVYSFSLASRLYAEERYPILPEYLQCVKELYRGGLEPINFQTAADQARELINSWVESQTNGIIRNVLQPSSVDSQTAMVLVNAIVFKGLWEKAFKDEDTQAMPFRVTEQESKPVQMMYQIGLFRVASMASEKMKILELPFASGTMSMLVLLPDEVSGLEQLESIINFEKLTEWTSSNVMEERKIKVYLPRMKMEEKYNLTSVLMAMGITDVFSSSANLSGISSAESLKISQAVHAAHAEINEAGREVVGSAEAGVDAASVSEEFRADHPFLFCIKHIATNAVLFFGRCVSP
notes: hydrophilic compound
As to B1, in series [1], the “delivery depth … with d-SCC” value is listed as “excellent delivery depth”.
